According to the NIST ThermoML archive (doi:10.1021/je700287u):
Numbers after ± are expanded uncertainties.

Assay: xn = mol fraction of the nth substance listed
Settings: Liquid

CN(CCO)CCO [N-methyldiethanolamine] + O
Settings	mass density [kg/m3]
333.04 K, 10996 kPa, x1 = 0.0369	1000 ± 0.4
333.04 K, 11991 kPa, x1 = 0.0369	1000.4 ± 0.4
333.04 K, 12996 kPa, x1 = 0.0369	1000.8 ± 0.4
333.04 K, 13988 kPa, x1 = 0.0369	1001.2 ± 0.4
333.04 K, 14991 kPa, x1 = 0.0369	1001.6 ± 0.4
333.04 K, 15994 kPa, x1 = 0.0369	1002 ± 0.4
333.04 K, 16992 kPa, x1 = 0.0369	1002.4 ± 0.4
333.04 K, 17985 kPa, x1 = 0.0369	1002.8 ± 0.4
333.04 K, 18990 kPa, x1 = 0.0369	1003.2 ± 0.4
333.04 K, 19977 kPa, x1 = 0.0369	1003.6 ± 0.4
333.05 K, 1013 kPa, x1 = 0.0893	1013 ± 0.4
333.05 K, 2006 kPa, x1 = 0.0893	1013.4 ± 0.4
333.05 K, 2994 kPa, x1 = 0.0893	1013.8 ± 0.4
333.05 K, 4031 kPa, x1 = 0.0893	1014.2 ± 0.4
333.05 K, 4999 kPa, x1 = 0.0893	1014.6 ± 0.4
333.05 K, 6000 kPa, x1 = 0.0893	1015 ± 0.4
333.05 K, 6995 kPa, x1 = 0.0893	1015.4 ± 0.4
333.05 K, 8005 kPa, x1 = 0.0893	1015.8 ± 0.4
333.05 K, 9000 kPa, x1 = 0.0893	1016.2 ± 0.4
333.05 K, 9992 kPa, x1 = 0.0893	1016.5 ± 0.4
333.05 K, 10993 kPa, x1 = 0.0893	1017 ± 0.4
333.05 K, 11998 kPa, x1 = 0.0893	1017.3 ± 0.4
333.05 K, 13000 kPa, x1 = 0.0893	1017.7 ± 0.4
333.05 K, 14008 kPa, x1 = 0.0893	1018.1 ± 0.4
333.05 K, 14983 kPa, x1 = 0.0893	1018.5 ± 0.4
333.05 K, 16002 kPa, x1 = 0.0893	1018.9 ± 0.4
333.05 K, 17032 kPa, x1 = 0.0893	1019.3 ± 0.4
333.05 K, 17945 kPa, x1 = 0.0893	1019.6 ± 0.5
333.05 K, 18989 kPa, x1 = 0.0893	1020 ± 0.5
333.05 K, 19994 kPa, x1 = 0.0893	1020.4 ± 0.5
342.91 K, 1008 kPa, x1 = 0.1302	1011.7 ± 0.4
342.91 K, 1996 kPa, x1 = 0.1302	1012.1 ± 0.4
342.91 K, 3044 kPa, x1 = 0.1302	1012.5 ± 0.4
342.91 K, 4015 kPa, x1 = 0.1302	1012.9 ± 0.4
342.91 K, 5006 kPa, x1 = 0.1302	1013.4 ± 0.4
342.91 K, 5995 kPa, x1 = 0.1302	1013.8 ± 0.4
342.91 K, 7010 kPa, x1 = 0.1302	1014.2 ± 0.4
342.91 K, 8001 kPa, x1 = 0.1302	1014.6 ± 0.4
342.91 K, 8996 kPa, x1 = 0.1302	1015 ± 0.4
342.91 K, 9995 kPa, x1 = 0.1302	1015.5 ± 0.4
342.91 K, 10992 kPa, x1 = 0.1302	1015.9 ± 0.4
342.91 K, 12029 kPa, x1 = 0.1302	1016.3 ± 0.4
342.91 K, 12993 kPa, x1 = 0.1302	1016.7 ± 0.4
342.91 K, 13996 kPa, x1 = 0.1302	1017.1 ± 0.4
342.91 K, 14997 kPa, x1 = 0.1302	1017.5 ± 0.4
342.91 K, 15998 kPa, x1 = 0.1302	1017.9 ± 0.4
342.91 K, 16997 kPa, x1 = 0.1302	1018.3 ± 0.4
342.91 K, 18033 kPa, x1 = 0.1302	1018.8 ± 0.5
342.91 K, 18977 kPa, x1 = 0.1302	1019.2 ± 0.5
342.91 K, 19980 kPa, x1 = 0.1302	1019.6 ± 0.5
342.94 K, 1029 kPa, x1 = 0.0893	1005.9 ± 0.4
342.94 K, 1996 kPa, x1 = 0.0893	1006.3 ± 0.4
342.94 K, 3018 kPa, x1 = 0.0893	1006.7 ± 0.4
342.94 K, 3995 kPa, x1 = 0.0893	1007.1 ± 0.4
342.94 K, 5000 kPa, x1 = 0.0893	1007.5 ± 0.4
342.94 K, 5992 kPa, x1 = 0.0893	1007.9 ± 0.4
342.94 K, 7008 kPa, x1 = 0.0893	1008.3 ± 0.4
342.94 K, 7994 kPa, x1 = 0.0893	1008.8 ± 0.4
342.94 K, 9001 kPa, x1 = 0.0893	1009.1 ± 0.4
342.94 K, 9994 kPa, x1 = 0.0893	1009.6 ± 0.4
342.94 K, 10983 kPa, x1 = 0.0893	1010 ± 0.4
342.94 K, 12000 kPa, x1 = 0.0893	1010.4 ± 0.4
342.94 K, 12996 kPa, x1 = 0.0893	1010.8 ± 0.4
342.94 K, 14014 kPa, x1 = 0.0893	1011.2 ± 0.4
342.94 K, 14994 kPa, x1 = 0.0893	1011.6 ± 0.4
342.94 K, 15989 kPa, x1 = 0.0893	1012 ± 0.4
342.94 K, 16991 kPa, x1 = 0.0893	1012.4 ± 0.4
342.94 K, 17989 kPa, x1 = 0.0893	1012.8 ± 0.4
342.94 K, 18984 kPa, x1 = 0.0893	1013.2 ± 0.4
342.94 K, 19988 kPa, x1 = 0.0893	1013.6 ± 0.4
342.96 K, 1042 kPa, x1 = 0.0607	999.5 ± 0.4
342.96 K, 2006 kPa, x1 = 0.0607	999.8 ± 0.4
342.96 K, 3028 kPa, x1 = 0.0607	1000.3 ± 0.4
342.96 K, 4013 kPa, x1 = 0.0607	1000.7 ± 0.4
342.96 K, 5003 kPa, x1 = 0.0607	1001.2 ± 0.4
342.96 K, 5994 kPa, x1 = 0.0607	1001.6 ± 0.4
342.96 K, 7004 kPa, x1 = 0.0607	1002 ± 0.4
342.96 K, 8063 kPa, x1 = 0.0607	1002.5 ± 0.4
342.96 K, 9140 kPa, x1 = 0.0607	1003 ± 0.4
342.96 K, 10022 kPa, x1 = 0.0607	1003.4 ± 0.4
342.96 K, 11032 kPa, x1 = 0.0607	1003.7 ± 0.4
342.96 K, 11997 kPa, x1 = 0.0607	1004.1 ± 0.4
342.96 K, 13009 kPa, x1 = 0.0607	1004.5 ± 0.4
342.96 K, 14001 kPa, x1 = 0.0607	1004.9 ± 0.4
342.96 K, 15005 kPa, x1 = 0.0607	1005.3 ± 0.4
342.96 K, 16002 kPa, x1 = 0.0607	1005.7 ± 0.4
342.96 K, 17011 kPa, x1 = 0.0607	1006.1 ± 0.4
342.96 K, 17988 kPa, x1 = 0.0607	1006.5 ± 0.4
342.96 K, 18992 kPa, x1 = 0.0607	1006.9 ± 0.4
342.96 K, 20154 kPa, x1 = 0.0607	1007.3 ± 0.4
352.84 K, 1009 kPa, x1 = 0.1302	1004 ± 0.4
352.84 K, 2026 kPa, x1 = 0.1302	1004.3 ± 0.4
352.84 K, 3005 kPa, x1 = 0.1302	1004.8 ± 0.4
352.84 K, 4006 kPa, x1 = 0.1302	1005.3 ± 0.4
352.84 K, 5004 kPa, x1 = 0.1302	1005.7 ± 0.4
352.84 K, 5993 kPa, x1 = 0.1302	1006.1 ± 0.4
352.84 K, 6991 kPa, x1 = 0.1302	1006.5 ± 0.4
352.84 K, 7992 kPa, x1 = 0.1302	1006.9 ± 0.4
352.84 K, 8994 kPa, x1 = 0.1302	1007.4 ± 0.4
352.84 K, 9980 kPa, x1 = 0.1302	1007.8 ± 0.4
352.84 K, 10971 kPa, x1 = 0.1302	1008.2 ± 0.4
352.84 K, 11987 kPa, x1 = 0.1302	1008.7 ± 0.4
352.84 K, 13040 kPa, x1 = 0.1302	1009.1 ± 0.4
352.84 K, 13997 kPa, x1 = 0.1302	1009.5 ± 0.4
352.84 K, 14981 kPa, x1 = 0.1302	1009.9 ± 0.4
